Results taken from ChEMBL document CHEMBL3045199, “Synthesis of some (E)-6-[2-(furan-2-yl)ethenyl]-1,2,4-triazin-5-ones and their biological evaluation as antitumor agents” (2013).

Key:
Format in all cases: functional
HCC 2998 = experiment: Cytotoxicity against Homo sapiens (human) HCC2998 cells after 48 hr by SRB assay; settings: HCC 2998, 48 h, read-out: pGI50 (converted)
PC-3 = experiment: Cytotoxicity against Homo sapiens (human) PC3 cells after 48 hr by SRB assay; settings: PC-3, 48 h, read-out: pGI50 (converted)
SK-MEL-2 = experiment: Cytotoxicity against Homo sapiens (human) SK-MEL-2 cells after 48 hr by SRB assay; settings: SK-MEL-2, 48 h, read-out: pGI50 (converted)
MOLT-4 = experiment: Cytotoxicity against Homo sapiens (human) MOLT4 cells after 48 hr by SRB assay; settings: MOLT-4, 48 h, read-out: pGI50 (converted)
HOP-62 = experiment: Cytotoxicity against Homo sapiens (human) HOP62 cells after 48 hr by SRB assay; settings: HOP-62, 48 h, read-out: pGI50 (converted)
OVCAR-3 = experiment: Cytotoxicity against Homo sapiens (human) OVCAR3 cells after 48 hr by SRB assay; settings: OVCAR-3, 48 h, read-out: pGI50 (converted)
K562 = experiment: Cytotoxicity against Homo sapiens (human) K562 cells after 48 hr by SRB assay; settings: K562, 48 h, read-out: pGI50 (converted)
NCI-H23 = experiment: Cytotoxicity against Homo sapiens (human) NCI-H23 cells after 48 hr by SRB assay; settings: NCI-H23, 48 h, read-out: pGI50 (converted)
ACHN = experiment: Cytotoxicity against Homo sapiens (human) ACHN cells after 48 hr by SRB assay; settings: read-out: pGI50 (converted)
MDA-MB-231 = experiment: Cytotoxicity against Homo sapiens (human) MDA-MB-231 cells after 48 hr by SRB assay; settings: MDA-MB-231, 48 h, read-out: pGI50 (converted)
TK-10 = experiment: Cytotoxicity against Homo sapiens (human) TK10 cells after 48 hr by SRB assay; settings: TK-10, 48 h, read-out: pGI50 (converted)
IGROV-1 = experiment: Cytotoxicity against Homo sapiens (human) IGROV1 cells after 48 hr by SRB assay; settings: IGROV-1, 48 h, read-out: pGI50 (converted)
BT-549 = experiment: Cytotoxicity against Homo sapiens (human) BT549 cells after 48 hr by SRB assay; settings: BT-549, 48 h, read-out: pGI50 (converted)
SK-MEL-5 = experiment: Cytotoxicity against Homo sapiens (human) SK-MEL-5 cells after 48 hr by SRB assay; settings: SK-MEL-5, 48 h, read-out: pGI50 (converted)
A498 = experiment: Cytotoxicity against Homo sapiens (human) A498 cells after 48 hr by SRB assay; settings: A498, 48 h, read-out: pGI50 (converted)
OVCAR-5 = experiment: Cytotoxicity against Homo sapiens (human) OVCAR5 cells after 48 hr by SRB assay; settings: OVCAR-5, 48 h, read-out: pGI50 (converted)
RXF 393 = experiment: Cytotoxicity against Homo sapiens (human) RXF393 cells after 48 hr by SRB assay; settings: RXF 393, 48 h, read-out: pGI50 (converted)
CCRF-CEM = experiment: Cytotoxicity against Homo sapiens (human) CCRF-CEM cells after 48 hr by SRB assay; settings: read-out: pGI50 (converted)
SF-295 = experiment: Cytotoxicity against Homo sapiens (human) SF295 cells after 48 hr by SRB assay; settings: SF-295, 48 h, read-out: pGI50 (converted)
Hs-578T = experiment: Cytotoxicity against Homo sapiens (human) Hs 578T cells after 48 hr by SRB assay
OVCAR-4 = experiment: Cytotoxicity against Homo sapiens (human) OVCAR4 cells after 48 hr by SRB assay; settings: OVCAR-4, 48 h, read-out: pGI50 (converted)
NCI-H226 = experiment: Cytotoxicity against Homo sapiens (human) NCI-H226 cells after 48 hr by SRB assay; settings: NCI-H226, 48 h, read-out: pGI50 (converted)
HCT-15 = experiment: Cytotoxicity against Homo sapiens (human) HCT15 cells after 48 hr by SRB assay; settings: HCT-15, 48 h, read-out: pGI50 (converted)
HOP-92 = experiment: Cytotoxicity against Homo sapiens (human) HOP92 cells after 48 hr by SRB assay; settings: HOP-92, 48 h, read-out: pGI50 (converted)
UACC-62 = experiment: Cytotoxicity against Homo sapiens (human) UACC62 cells after 48 hr by SRB assay; settings: UACC-62, 48 h, read-out: pGI50 (converted)
HL-60(TB) = experiment: Cytotoxicity against Homo sapiens (human) HL-60(TB) cells after 48 hr by SRB assay; settings: HL-60, 48 h, read-out: pGI50 (converted)
NCI-H322M = experiment: Cytotoxicity against Homo sapiens (human) NCI-H322M cells after 48 hr by SRB assay; settings: read-out: pGI50 (converted)
SK-OV-3 = experiment: Cytotoxicity against Homo sapiens (human) SKOV3 cells after 48 hr by SRB assay; settings: SK-OV-3, 48 h, read-out: pGI50 (converted)
A549 = experiment: Cytotoxicity against Homo sapiens (human) A549 cells after 48 hr by SRB assay; settings: A549, 48 h, read-out: pGI50 (converted)
DU-145 = experiment: Cytotoxicity against Homo sapiens (human) DU145 cells after 48 hr by SRB assay; settings: DU-145, 48 h, read-out: pGI50 (converted)
HCT-116 = experiment: Cytotoxicity against Homo sapiens (human) HCT116 cells after 48 hr by SRB assay; settings: HCT-116, 48 h, read-out: pGI50 (converted)
KM12 = experiment: Cytotoxicity against Homo sapiens (human) KM12 cells after 48 hr by SRB assay; settings: KM12, 48 h, read-out: pGI50 (converted)
SF-539 = experiment: Cytotoxicity against Homo sapiens (human) SF539 cells after 48 hr by SRB assay; settings: SF-539, 48 h, read-out: pGI50 (converted)
UACC-257 = experiment: Cytotoxicity against Homo sapiens (human) UACC257 cells after 48 hr by SRB assay; settings: UACC-257, 48 h, read-out: pGI50 (converted)

**Q.** What does the source list for `O=c1[nH]cc(F)c(=O)[nH]1` [FLUOROURACIL]?
**A.** GI50 (HCC 2998): 1.58 µM; GI50 (PC-3): 50.1 µM; GI50 (SK-MEL-2): 398 µM; GI50 (MOLT-4): 12.6 µM; GI50 (HOP-62): 20 µM; GI50 (OVCAR-3): 25.1 µM; GI50 (K562): 20 µM; GI50 (NCI-H23): 12.6 µM; GI50 (ACHN): 10 µM; GI50 (MDA-MB-231): 501 µM; GI50 (TK-10): 126 µM; GI50 (IGROV-1): 12.6 µM; GI50 (BT-549): 100 µM; GI50 (SK-MEL-5): 12.6 µM; GI50 (A498): 10 µM; GI50 (OVCAR-5): 158 µM; GI50 (RXF 393): 50.1 µM; GI50 (CCRF-CEM): 31.6 µM; GI50 (SF-295): 50.1 µM; GI50 (Hs-578T): 251 µM; GI50 (OVCAR-4): 63.1 µM; GI50 (NCI-H226): 251 µM; GI50 (HCT-15): 6.31 µM; GI50 (HOP-92): 158 µM; GI50 (UACC-62): 12.6 µM; GI50 (HL-60(TB)): 20 µM; GI50 (NCI-H322M): 20 µM; GI50 (SK-OV-3): 158 µM; GI50 (A549): 2 µM; GI50 (DU-145): 10 µM; GI50 (HCT-116): 3.98 µM; GI50 (KM12): 10 µM; GI50 (SF-539): 1.26 µM; GI50 (UACC-257): 100 µM
